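In this assay, cells in 96-well plates receive the compound at five concentrations for 48 hours. Endpoints are linearly interpolated between the surrounding concentrations. GI50 marks 50% less growth. TGI denotes the concentration required for complete inhibition of growth.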
Tests used:
Test in all cases: growth of human tumour cells (NCI), 48 h
NCI/ADR-RES ovarian = test system: NCI/ADR-RES ovarian
HOP-92 NSCLC = test system: HOP-92 NSCLC
SF-295 CNS = test system: SF-295 CNS
K-562 leukemia = test system: K-562 leukemia
MALME-3M melanoma = test system: MALME-3M melanoma
T-47D breast = test system: T-47D breast
PC-3 prostate = test system: PC-3 prostate
DLD-1 colon = test system: DLD-1 colon
SNB-78 CNS = test system: SNB-78 CNS
HOP-18 NSCLC = test system: HOP-18 NSCLC

| SMILES | GI50 (NCI/ADR-RES ovarian) | TGI (NCI/ADR-RES ovarian) | GI50 (HOP-92 NSCLC) | TGI (HOP-92 NSCLC) | GI50 (SF-295 CNS) | TGI (SF-295 CNS) | GI50 (K-562 leukemia) | TGI (K-562 leukemia) | GI50 (MALME-3M melanoma) | TGI (MALME-3M melanoma) | GI50 (T-47D breast) | TGI (T-47D breast) | GI50 (PC-3 prostate) | TGI (PC-3 prostate) | TGI (DLD-1 colon) | TGI (SNB-78 CNS) | TGI (HOP-18 NSCLC) | GI50 (SNB-78 CNS) | GI50 (DLD-1 colon) |
| --- | --- | --- | --- | --- | --- | --- | --- | --- | --- | --- | --- | --- | --- | --- | --- | --- | --- | --- | --- |
| CC1=CC(=Nc2ccc(N(CCCl)CCCl)cc2)C=C(C)C1=O | 1090 nM | 10.1 µM | 392 nM | 2.06 µM | 0.626 µM | 22.6 µM | 1210 nM | > 100 µM | 1840 nM | 6.49 µM | 640 nM | 3.22 µM | 1.48 µM | 7.08 µM |  |  |  |  |  |
| C/C(CC(=O)Nc1cc(Cl)c(Cl)cc1Cl)=N\NC(N)=O |  |  |  | > 100 µM |  | > 100 µM |  | > 100 µM |  | > 100 µM |  |  |  |  | > 100 µM |  |  |  |  |
| O=C1CCC(=O)N2CCCCN12 |  |  |  | > 100 µM |  | > 100 µM |  | > 100 µM |  | > 100 µM |  |  |  |  | > 100 µM | > 100 µM | > 100 µM |  |  |
| Cc1cccc(C)c1NC(=O)C(=O)C1C(=O)NC(=O)NC1=O |  |  |  | > 100 µM |  | > 100 µM |  | > 100 µM |  | > 100 µM |  |  |  |  | > 100 µM | > 100 µM | > 100 µM |  |  |
| COC12C=C(C)C(CC1)CC2C(=O)O (centres undefined) |  |  |  | > 100 µM |  | > 100 µM |  | > 100 µM |  | > 100 µM |  |  |  |  | > 100 µM | > 100 µM | > 100 µM |  |  |
| N#Cc1ccc(O)c(C2=NCC(c3cccc(Oc4ccccc4)c3)O2)c1 (centres undefined) | 290 nM | 6.51 µM | 1810 nM | 37 µM | 0.413 µM | 23.5 µM | 394 nM | > 100 µM | 1830 nM | 7.76 µM | 817 nM | 59.6 µM | 0.938 µM | 41.6 µM |  |  |  |  |  |
| CCCn1cnc2c(SCc3ccccc3Cl)nc(N)nc21 | 14800 nM | 64.1 µM | 1440 nM | 23.9 µM | 10.2 µM | 30.4 µM | 6550 nM | > 100 µM | 21400 nM | 58.7 µM | 22000 nM | 80.8 µM | 6.49 µM | 37.5 µM |  |  |  |  |  |
| CSC(C1c2ccccc2N(c2ccc(C)cc2)C2=NC(=O)N(C)C(=O)C21Cl)S(=O)(=O)c1ccc(C)cc1 (centres undefined) |  |  |  | 27.9 µM |  | 62.4 µM |  | 53.9 µM |  | 32.6 µM |  |  |  |  | 33.5 µM | 80.1 µM |  |  |  |
| COc1ccc(/C=C/CN(C)CCc2ccccc2)cc1OC |  |  |  | 9.9 µM |  | > 100 µM |  | > 100 µM |  | > 100 µM |  |  |  |  |  | > 100 µM |  |  |  |
| CCCCN=C(NC#N)NCCCC |  |  |  | > 100 µM |  | > 100 µM |  | > 100 µM |  | > 100 µM |  |  |  |  | > 100 µM | > 100 µM | > 100 µM |  |  |
| CCC[CH2][Sn]1([CH2]CCC)[O]Cc2nc(C)ccc2[O]1 |  |  | 2520 nM | 19.2 µM | 2.02 µM | 3.69 µM | 3170 nM | 10.5 µM | 5030 nM | 14.5 µM |  |  |  |  | 21.9 µM | 6.39 µM |  | 2380 nM | 10.2 µM |
| NC(CCC(=O)NC(CSSCCCCS(=O)O)C(=O)NCC(=O)O)C(=O)O (centres undefined) |  |  |  |  |  | > 100 µM |  | > 100 µM |  | > 100 µM |  |  |  |  | > 100 µM | > 100 µM | > 100 µM |  |  |
| CC1(C)OC2[C@@H](CNC(=O)NC(=O)NC(=O)CI)O[C@@H](n3cnc4c(NC(=O)Nc5ccccc5)ncnc43)[C@H]2O1 (some centres undefined) | 16400 nM | > 50 µM | 1400 nM | 4.23 µM | 9.18 µM | 19.4 µM | 2300 nM | 10.5 µM | 1120 nM | 2.9 µM | 9640 nM | 21.5 µM | 8 µM | 16.6 µM |  |  |  |  |  |
| O=C(/C(Br)=C/c1ccccc1)c1ccccc1 | 2240 nM | 6.48 µM | 1870 nM | 4.28 µM | 11.8 µM | 25.9 µM | 2230 nM | 9.28 µM | 1750 nM | 3.9 µM | 1820 nM | 4.71 µM | 3.11 µM | 10.5 µM |  |  |  |  |  |
| COC(=O)C1Cc2c(n(Cc3ccccc3)c3ccccc23)C(CCC(=O)O)N1C(C)C (centres undefined) |  |  |  | > 100 µM |  | > 100 µM |  | > 100 µM |  | > 100 µM |  |  |  |  | > 100 µM | > 100 µM | > 100 µM |  |  |
| O=C1O[C@@H](c2ccc3c(c2)OCO3)C2C(=O)O[C@@H](c3ccc4c(c3)OCO4)C12 (some centres undefined) |  |  |  | > 100 µM |  | > 100 µM |  | > 100 µM |  |  |  |  |  |  |  | > 100 µM | > 100 µM |  |  |
| O=C1C2c3[nH]c4ccccc4c3C3CCCCCCC3C2C(=O)N1c1ccccc1 (centres undefined) |  |  |  |  |  | 12.8 µM |  | 24.9 µM |  | 12.7 µM |  |  |  |  |  | 32.4 µM |  |  |  |
| O=C(O)C(CO)NC(=O)n1c2ccccc2c2ccccc21 (centres undefined) |  |  |  | > 100 µM |  | > 100 µM |  | > 100 µM |  | > 100 µM |  |  |  |  | > 100 µM |  | > 100 µM |  |  |
